From PubChem BioAssay AID330 (DTP/NCI, 2004)
“And” between values parts separate entries of the source, which are not always exact repeats. Identical values can stand only once. Inconclusive results and toxic doses are left out.

System: P388 leukemia ip, CD2F1 mice, survival T/C
Assay: NCI In Vivo Anticancer Drug Screen. Data for tumor model P388 Leukemia (intraperitoneal) in CD2F1 (CDF1) mice
Details: endpoint: median survival time, higher = longer survival
Outline: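 Mice carrying the transplanted tumor received test compound or vehicle. Survival was recorded in each group, and the value is the treated-group measurement divided by that of the vehicle-treated control group.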

[1] = dose: 12.5 mg/kg/injection, schedule: Q01DX009 (ip), vehicle: saline with Tween-80
[2] = dose: 25.0 mg/kg/injection, schedule: Q01DX009 (ip), vehicle: saline with Tween-80
[3] = dose: 50.0 mg/kg/injection, schedule: Q01DX009 (ip), vehicle: saline with Tween-80
[4] = dose: 100.0 mg/kg/injection, schedule: Q01DX009 (ip), vehicle: saline with Tween-80
[5] = dose: 25.0 mg/kg/injection, schedule: Q01DX005 (ip), vehicle: Klucel (hydroxypropylcellulose) (HPC)
[6] = dose: 50.0 mg/kg/injection, schedule: Q01DX005 (ip), vehicle: Klucel (hydroxypropylcellulose) (HPC)
[7] = dose: 100.0 mg/kg/injection, schedule: Q01DX005 (ip), vehicle: Klucel (hydroxypropylcellulose) (HPC)
[8] = dose: 200.0 mg/kg/injection, schedule: Q01DX005 (ip), vehicle: Klucel (hydroxypropylcellulose) (HPC)
[9] = dose: 200.0 mg/kg/injection, schedule: Q01DX009 (ip), vehicle: saline with Tween-80
[10] = dose: 60.0 mg/kg/injection, schedule: Q01DX005 (ip), vehicle: saline with Tween-80
[11] = dose: 120.0 mg/kg/injection, schedule: Q01DX005 (ip), vehicle: saline with Tween-80
[12] = dose: 240.0 mg/kg/injection, schedule: Q01DX005 (ip), vehicle: saline with Tween-80
[13] = dose: 100.0 mg/kg/injection, schedule: Q04DX003 (ip), vehicle: saline with Tween-80
[14] = dose: 12.5 mg/kg/injection, schedule: Q01DX005 (ip), vehicle: saline
[15] = dose: 25.0 mg/kg/injection, schedule: Q01DX005 (ip), vehicle: saline
[16] = dose: 50.0 mg/kg/injection, schedule: Q01DX005 (ip), vehicle: saline with Tween-80
[17] = dose: 50.0 mg/kg/injection, schedule: Q01DX005 (ip), vehicle: saline

CS/C(=C1/C(=O)N(c2ccccc2)N=C1C)N1CC1
T/C (dose: 6.25 mg/kg/injection, schedule: Q04DX003 (ip), vehicle: Klucel (hydroxypropylcellulose) (HPC)): 99 % of control | T/C (dose: 12.5 mg/kg/injection, schedule: Q04DX003 (ip), vehicle: Klucel (hydroxypropylcellulose) (HPC)): 100 % of control | T/C (dose: 25.0 mg/kg/injection, schedule: Q04DX003 (ip), vehicle: Klucel (hydroxypropylcellulose) (HPC)): 102 % of control and 109 % of control | T/C (dose: 50.0 mg/kg/injection, schedule: Q04DX003 (ip), vehicle: Klucel (hydroxypropylcellulose) (HPC)): 90 % of control

O=C1c2ccccc2C(=O)N1CCS(=O)(=O)Cl
T/C [1]: 100 % of control | T/C [2]: 106 % of control | T/C [3]: 114 % of control | T/C [4]: 117 % of control

COC1=C(OC)C(=O)C(OC)=C(OC)C1=O
T/C [1]: 106 % of control | T/C [2]: 98 % of control | T/C [3]: 104 % of control

CC1CN1P(=S)(N1CCCCC1)N1CC1C (stereo not drawn)
T/C (dose: 25.0 mg/kg/injection, schedule: Q01DX009 (ip), vehicle: suspension in saline): 100 % of control | T/C (dose: 50.0 mg/kg/injection, schedule: Q01DX009 (ip), vehicle: suspension in saline): 96 % of control | T/C (dose: 100.0 mg/kg/injection, schedule: Q01DX009 (ip), vehicle: suspension in saline): 102 % of control | T/C (dose: 200.0 mg/kg/injection, schedule: Q01DX009 (ip), vehicle: suspension in saline): 105 % of control

COc1cc(OC)c2c(c1)C(C1c3cc(C)cc(O)c3C(=O)c3c(OC)cc(OC)cc31)c1cc(C)cc(O)c1C2=O (stereo not drawn)
T/C (dose: 12.5 mg/kg/injection, schedule: Q01DX005 (ip), vehicle: Klucel (hydroxypropylcellulose) (HPC)): 105 % of control | T/C [5]: 100 % of control | T/C [6]: 92 % of control | T/C [7]: 92 % of control | T/C [8]: 96 % of control

S=C(c1c(Cl)cccc1Cl)N1CN(Cc2ccc(Cl)cc2)CN(Cc2ccc(Cl)cc2)C1
T/C [3]: 99 % of control | T/C [4]: 96 % of control | T/C [9]: 108 % of control

COc1ccc(/C=C2\N=C(c3ccccc3)OC2=O)c(OCc2ccccc2)c1
T/C (dose: 12.5 mg/kg/injection, schedule: Q01DX009 (ip), vehicle: other): 88 % of control | T/C (dose: 25.0 mg/kg/injection, schedule: Q01DX009 (ip), vehicle: other): 89 % of control | T/C (dose: 100.0 mg/kg/injection, schedule: Q01DX009 (ip), vehicle: other): 88 % of control | T/C (dose: 200.0 mg/kg/injection, schedule: Q01DX009 (ip), vehicle: other): 94 % of control

CC(C)(CC#N)c1cc(CC(C)(C)c2cc(CC(C)(C)c3cc(CC(C)(C)C4(C)OCCO4)no3)no2)no1
T/C (dose: 30.0 mg/kg/injection, schedule: Q01DX005 (ip), vehicle: saline with Tween-80): 87 % of control | T/C [10]: 90 % of control and 91 % of control | T/C [11]: 86 % of control | T/C [12]: 87 % of control

CC1(CNC(=O)C(=O)NCC2(C)CO2)CO1 (stereo not drawn)
T/C (dose: 6.25 mg/kg/injection, schedule: Q04DX003 (ip), vehicle: saline with Tween-80): 90 % of control | T/C (dose: 17.5 mg/kg/injection, schedule: Q04DX003 (ip), vehicle: saline with Tween-80): 109 % of control | T/C [2]: 150 % of control | T/C (dose: 25.0 mg/kg/injection, schedule: Q04DX003 (ip), vehicle: saline with Tween-80): 122 % of control | T/C [3]: 172 % of control | T/C [4]: 186 % of control | T/C [13]: 168 % of control | T/C (dose: 132.0 mg/kg/injection, schedule: Q04DX003 (ip), vehicle: saline with Tween-80): 172 % of control | T/C (dose: 200.0 mg/kg/injection, schedule: Q04DX003 (ip), vehicle: saline with Tween-80): 163 % of control and 195 % of control | T/C (dose: 300.0 mg/kg/injection, schedule: Q04DX003 (ip), vehicle: saline with Tween-80): 195 % of control | T/C (dose: 400.0 mg/kg/injection, schedule: Q04DX003 (ip), vehicle: saline with Tween-80): 109 % of control

CCOC(=O)C(c1ccccc1)N(CCCN(CC)CC)c1ccccc1 (stereo not drawn)
T/C [14]: 108 % of control | T/C [15]: 108 % of control | T/C [16]: 100 % of control | T/C [17]: 101 % of control

CCOC(=O)C1=C(C(C)=O)C(c2cccc([N+](=O)[O-])c2)C(C(C)=O)=C(C(=O)OCC)N1
T/C (dose: 60.0 mg/kg/injection, schedule: Q01DX005 (ip), vehicle: Klucel (hydroxypropylcellulose) (HPC)): 98 % of control | T/C (dose: 120.0 mg/kg/injection, schedule: Q01DX005 (ip), vehicle: Klucel (hydroxypropylcellulose) (HPC)): 88 % of control | T/C (dose: 240.0 mg/kg/injection, schedule: Q01DX005 (ip), vehicle: Klucel (hydroxypropylcellulose) (HPC)): 95 % of control

CC(=O)Nc1ccc(N=NN(C)Cc2ccccc2)cc1
T/C (dose: 25.0 mg/kg/injection, schedule: Q01DX001 (ip), vehicle: Klucel (hydroxypropylcellulose) (HPC)): 102 % of control | T/C (dose: 50.0 mg/kg/injection, schedule: Q01DX001 (ip), vehicle: Klucel (hydroxypropylcellulose) (HPC)): 92 % of control

COC1C=COC2(C)Oc3c(C)c(O)c4c(O)c(c(C5SCCS5)c(O)c4c3C2=O)NC(=O)/C(C)=C\C=CC(C)C(O)C(C)C(O)C(C)C(OC(C)=O)C1C (stereo not drawn)
T/C [2]: 100 % of control and 92 % of control | T/C [3]: 105 % of control and 106 % of control and 92 % of control | T/C [4]: 100 % of control and 108 % of control | T/C [9]: 109 % of control and 111 % of control and 115 % of control

CCCCCCCCCCCCCCCCCC[N+]1([O-])CCCC1
T/C (dose: 50.0 mg/kg/injection, schedule: Q01DX009 (ip), vehicle: water): 93 % of control

Cc1cc(NS(=O)(=O)c2ccc(N)cc2)no1
T/C [15]: 106 % of control | T/C [17]: 103 % of control | T/C (dose: 100.0 mg/kg/injection, schedule: Q01DX005 (ip), vehicle: saline): 114 % of control | T/C (dose: 200.0 mg/kg/injection, schedule: Q01DX005 (ip), vehicle: saline): 101 % of control | T/C (dose: 400.0 mg/kg/injection, schedule: Q01DX005 (ip), vehicle: saline): 97 % of control

Cc1ccc(O)c(C(=NCCCCN=C(c2ccccc2)c2cc(C)ccc2O)c2ccccc2)c1.[Ni]
T/C [5]: 97 % of control | T/C [6]: 97 % of control | T/C [7]: 103 % of control | T/C [8]: 94 % of control

CCOC(=O)NC12c3ccccc3C(c3ccccc31)C(C(=O)O)C2C(=O)O (stereo not drawn)
T/C [4]: 118 % of control | T/C [9]: 118 % of control | T/C (dose: 400.0 mg/kg/injection, schedule: Q01DX009 (ip), vehicle: saline with Tween-80): 118 % of control

CCc1ccc(C2=C(O)C(=O)C(c3ccc(CC)cc3)=C(O)C2=O)cc1
T/C (dose: 6.25 mg/kg/injection, schedule: Q01DX009 (ip), vehicle: saline with Tween-80): 100 % of control | T/C [1]: 110 % of control | T/C (dose: 33.0 mg/kg/injection, schedule: Q01DX009 (ip), vehicle: saline with Tween-80): 163 % of control

Nc1ncnc2c1nc(F)n2C1OC(CO)C(O)C1O (stereo not drawn)
T/C (dose: 6.25 mg/kg/injection, schedule: Q01DX005 (ip), vehicle: saline): 107 % of control | T/C [14]: 108 % of control | T/C [15]: 108 % of control

CC(NNC(=S)N1CC2CCC(CC2)C1)c1cccc[n+]1[O-] (stereo not drawn)
T/C [16]: 101 % of control | T/C (dose: 100.0 mg/kg/injection, schedule: Q01DX005 (ip), vehicle: saline with Tween-80): 100 % of control | T/C (dose: 200.0 mg/kg/injection, schedule: Q01DX005 (ip), vehicle: saline with Tween-80): 100 % of control

C/C=C(\C)C(C)(C#N)Nc1ccccc1 (stereo not drawn)
T/C [9]: 90 % of control

Cc1ccc(-c2cc(=O)c3cccc(CC(=O)O)c3o2)cc1
T/C [5]: 112 % of control and 89 % of control | T/C [6]: 104 % of control and 118 % of control | T/C [7]: 119 % of control and 90 % of control

COc1cccc2c1C(=O)c1c(O)c3c(c(O)c1C2=O)C[C@@](O)(c1csc(-c2ccccc2)n1)C[C@@H]3OC1CC(N)C(O)C(C)O1 (stereo partly drawn)
T/C (dose: 1.56 mg/kg/injection, schedule: Q01DX009 (ip), vehicle: water): 174 % of control | T/C (dose: 3.13 mg/kg/injection, schedule: Q01DX009 (ip), vehicle: water): 165 % of control | T/C (dose: 6.25 mg/kg/injection, schedule: Q01DX009 (ip), vehicle: water): 182 % of control

CC(=O)OCC1OC(Nc2[nH]c(=O)n(C)c(=O)c2C(=O)CCl)C(OC(C)=O)C(OC(C)=O)C1OC(C)=O (stereo not drawn)
T/C [10]: 114 % of control | T/C [11]: 105 % of control | T/C [12]: 124 % of control

O=C1CC2(C(=O)N1CN1CCN(c3ccc(F)cc3)CC1)c1ccccc1-c1ccccc12 (tested in a mixture with another compound)
T/C [13]: 90 % of control
